Test results: EP0497921B1, “METHOD FOR INHIBITING ENZYMATIC SYNTHESIS OF NUCLEIC ACIDS USING ISOPSORALENS” (ISAACS, Stephen T., priority 1989, dated 1991)

Legend:
tRNA = test: Photobinding to RNA; assay type: binding; conditions: 100 µg/ml, irradiated 30 minutes; 1-10 µg treated tRNA spotted; no signal from unirradiated controls
Experimental: This example describes photobinding of ^3H-AMIP, ^3H-AMDMIP and BIOMIP to RNA. A tRNA stock was prepared at a concentration of 765 µg/ml in 1 x TE / 10 mM NaCl. Appropriate amounts of each compound were prepared in separate reaction vessels such that upon addition of 200 µl of the tRNA solution (153 µg) the final concentration of each compound was 100 µg/ml. ^3H-AMIP and […] in the experiment; the BIOMIP used was unlabelled. Each reaction vessel was then irradiated for 30 minutes at 25 °C in the CE-III device. Identical unirradiated reaction mixtures were used as controls for each compound. Following irradiation, each mixture was extracted with CHCl3 (4 x 200 µl) then precipitated (X2). The pellets were resuspended in 1 x TE and the binding levels determined as follows. For the two labelled compounds (^3H-AMDMIP and ^3H-AMIP), the nucleic acid concentration was determined optically and radioactivity measured by scintillation counting of aliquots of the stock solutions. Binding of the compounds was then calculated to be as follows:
To determine if binding of BIOMIP to tRNA has occurred, it was necessary to use a non-radioactive format which detected the biotin moiety on the compound. A commercial kit ("BluGene"; BRL) was used for this purpose. The kit instructions were followed for detection of both the control DNA (supplied with the kit) and BIOMIP treated tRNA. […]

PCR'd MACS 1555 = test: Inhibition of PCR by non-psoralen compounds in the absence of light; assay type: biochemical; conditions: 30 cycles
Text: The compounds tested were the following: 1) ethidium bromide (a Phenanthridine, see Table 1), 2) xylene cylanol (an Organic Dye, see Table 1), 3) bromphenol blue (an Organic Dye, see Table 1), 4) coumarin and 5) methylene blue (a Phenazathionium Salt, see Table 1).
A separate experiment examined PCR inhibition with coumarin and methylene blue in the absence of light. The following concentrations of methylene blue were tried: 4.3 x 10^-2, 4.3 x 10^-3, 4.3 x 10^-4 and 4.3 x 10^-5 M. Concentrations of coumarin tried included: 7 x 10^-3, 7 x 10^-4, 7 x 10^-5 and 7 x 10^-6 M. Compound was added to PCR tube containing α-^32P-dCTP and target (1 µl […].; PCR'd MACS 1555 per assay-point). PCR was carried out for 30 x cycles. Samples were loaded onto a 12% / 8 M urea gel.

| Molecule | binding to tRNA detected via biotin moiety (BluGene kit) (tRNA) | inhibition of PCR in the absence of light (PCR'd MACS 1555) |
| --- | --- | --- |
| 5-N-[N,N'-Dimethyl-(6-[biotinamido]-hexanoate) -1,6-hexanediamine])-methyl-isopsoralen [BIOMIP] | covalently bound to the tRNA |  |
| O=c1ccc2ccccc2o1 [Coumarin, coumarin] |  | did not inhibit PCR at any of the concentrations tested |
